From ChEMBL document CHEMBL1212909, “Lactones and quinones from the tubers of Sinningia aggregata” (2010)

Experiments:
[1] = system: Candida dubliniensis; assay: Antifungal activity against Candida dubliniensis ATCC 777 by broth microdilution method
[2] = system: Candida dubliniensis; assay: Antifungal activity against Candida dubliniensis ATCC 778157 by broth microdilution method

For `COc1ccc2c(c1)C(=O)c1cc(C)ccc1C2=O`, the MIC [1] was > 100 µg/mL and the MIC [2] was > 100 µg/mL.
In the case of `Cc1ccc2c(c1)C(=O)c1cc(O)ccc1C2=O`, the MIC [1] is reported as > 100 µg/mL and the MIC [2] is reported as > 100 µg/mL.
`Cc1ccc2c(c1)C(=O)c1ccccc1C2=O` [TECTOQUINONE] was tested, and the MIC [1] was > 100 µg/mL and the MIC [2] was > 100 µg/mL.
